Test results taken from patent US12310967B2, “Compositions and methods of treatment for neurological disorders comprising motor neuron diseases” (Gliapharm SA, priority 2017, dated 2025).

How the values were obtained:
primary astrocytes [1] = test: Extracellular lactate quantification; format: cell-based, mouse; conditions: Appendix I, secondary screening: extracellular lactate
Procedure: Secretion of L-lactate was determined in the extracellular medium of 96-well plated astrocytes after 90 min stimulation (at 37° C., in 5% CO2/95% air conditions) with the drug of interest. The stimulation medium was composed of D5030 medium (completed with D-glucose 5 mM and 44 mM sodium bicarbonate) for 90 min in concentrations ranging from 0 to 100 μM.
Briefly, 200 μl of a Glycine (Sigma)-Semicarbazide (Acros) 0.2M pH 10 buffer containing 3 mM NAD (Roche) and LDH 14 U/ml (Roche) was added to each well of a 96-well plate containing 30 μl aliquots complemented with 20 μl fresh complete D5030 medium. Samples were incubated at 37° C. for 1 h. After samples cooled down at room temperature, the fluorescence intensity (340 nm excitation/450 nm emission) that represents the amount of NADH produced was measured, and lactate concentration values were determined from a standard curve of L-lactate.
Statistical analysis consisted in ANOVA followed by Fisher LSD post-hoc test for pair-wise comparisons.
Levels of lactate secreted by astrocytes were measured in the extracellular medium at 90 min after stimulation with hits (molecules) from the CDC54K library.

primary astrocytes [2] = test: High throughput screening (HTS) for lactate secretion: acidification of extracellular medium (SNARF5); format: cell-based, mouse; parameters: key to Score / HTS Score (SNARF5) / Score_SNARF: fraction of plate positive-control activity (1 = 100%); conditions: Appendix I; for Score_SNARF: primary screening confirmation (SNARF5)
Procedure: Primary cultures of cerebrocortical astrocytes were obtained from 1-2-day-old OF1 mouse pups (Charles River Laboratories). Briefly, cortices were isolated and minced in small pieces under a dissecting microscope. The cells were incubated for 30 min at 37° C. in a solution containing 20 U/ml of papain enzyme (Worthington Biochemical), L-cysteine 1 mM (Sigma), and 10 kU/ml DNase I (Worthington Biochemical) for an enzymatic dissociation. Papain activity was stopped by the addition of fetal calf serum (FCS) to the solution, and a single-cell suspension was then obtained by mechanical dissociation, which consisted in cells trituration in a DMEM (D7777, Sigma-Aldrich) medium (supplemented with 44 mm NaHCO3, and 10 ml/L antibiotic/antimycotic solution) containing 10% FCS. The cells were seeded at an average density of 6×10^4 cells/cm^2 in poly-D-lysine-coated 96, 12 or 6-well culture plates, depending on their use, and incubated at 37° C. in a humidified atmosphere containing 5% CO2/95% air. Culture medium was renewed twice per week. Cells were stimulated and harvested between DIV14 and DIV17, when confluence and cell growth were optimal.
Secretion of lactate in a high-throughput screening (HTS) fashion was measured indirectly through the acidification of extracellular medium. To this end, primary astrocytes grown in 96-well plates for 17 days were stimulated with the compounds as listed herein.
After washing the cells twice with stimulation medium (DMEM (D5030, Sigma), 3 mM NaHCO3 and 5 mM Glucose) at 37° C., cells were stimulated with the compounds at a final concentration of 10 uM (1% DMSO final) in 50 ul per well of stimulation medium supplemented with 10 uM of the extracellular pH sensor SNARF-5F %-(AND-6)-CAR (Life Technologies Corporation). Each compound was tested in two different plates for duplicates.
After 90 min stimulation, fluorescence was read at exc. (excitation) 480 nm/emm. (emission) 580 nm and at exc 480 nm/emm. 630 nm. The ratio of fluorescence between 630 nm and 580 emission values, which represents extracellular pH, was calculated.
In each plate, 8 wells were used for negative controls (DMSO) and 8 wells were used for positive controls (CCCP 2 uM in DMSO). Z prime values were calculated for each of the plates tested and values<0 were discarded.
The average and SD of compounds' values tested in duplicates were calculated, and compound was noted as HIT when the difference between compound's average and negative control's average was greater than three times the sum of compound's SD and negative controls' SD. Only scores greater than 40% were considered as lead Hits for the CDC54K library; for the remaining libraries, all hits were considered. Scores are calculated as the % of activity compared to the positive control in each plate (which is 100%).
Primary screening hits were cherry picked on new plates and confirmed for SNARF5 effect, after having discarded those compounds that are fluorescent (exc. 480 nm/emm. 580 nm or 630 nm) before stimulation. Extracellular medium was next analyzed for extracellular lactate quantification for secondary screening.
Identification of lactate-enhancing drugs with high throughput screening (HTS) experiments on astrocytes primary cultures using extracellular pH dye (SNARF5F 5-(and-6)-carboxylic acid) for 90 min. The procedure is described in Material and Methods (2. Cell culture, 2.1. HTS for lactate secretion and 2.2. Extracellular lactate quantification).
The procedure was performed as follows: • Primary screening: acidification of the extracellular medium • Primary screening confirmation: acidification of the extracellular medium, removal of compounds with fluorescent activity at exc. 480 nm/emm. 580 nm or 630 n. • Secondary screening: dosage of extracellular lactate

## Cc1oc2ncnc(N3CCCC(C(=O)NCc4cccnc4)C3)c2c1C (stereo not drawn) [F228-0351]
Primary astrocytes [1]
  Score_LACTATE: 0.8985
Primary astrocytes [2]
  Score_SNARF: 0.82

## CC(=O)N1CCCc2cc(S(=O)(=O)NCc3ccccc3)ccc21 [G855-0210]
Primary astrocytes [1]
  Score_LACTATE: 0
Primary astrocytes [2]
  Score_SNARF: 0.3123

## O=C(c1noc2ccc(S(=O)(=O)Nc3cccc(F)c3)cc12)N1CCCC1 [L995-0058]
Primary astrocytes [1]
  Score_LACTATE: 0.424
Primary astrocytes [2]
  Score_SNARF: 0.4197

## O=C(c1ccc(Cl)s1)N1CCC(Nc2ncnc3c2CCC3)C1 (stereo not drawn) [T636-2391]
Primary astrocytes [1]
  Score_LACTATE: 0.8854
Primary astrocytes [2]
  Score_SNARF: 0.8743

## COc1ccccc1[N+]1=C2CCCCCN2C(O)(c2ccccc2)C1 (stereo not drawn) [K404-0838]
Primary astrocytes [1]
  Score_LACTATE: 1.051
Primary astrocytes [2]
  Score_SNARF: 0.8328

## CC(C)OCCCNc1ncnc2c1CCC2 [T636-0027]
Primary astrocytes [1]
  Score_LACTATE: 0
Primary astrocytes [2]
  Score_SNARF: 0

## Cc1nc2ccc(NS(=O)(=O)c3ccccc3F)cc2s1 [T5511047]
Primary astrocytes [1]
  Score_LACTATE: 0.3825
Primary astrocytes [2]
  Score_SNARF: 0.5545

## COc1ccccc1[N+]1=C2CCCCN2C(O)(c2ccc(F)cc2)C1.[Br-] (stereo not drawn) [F0524-0338]
Primary astrocytes [1]
  Score_LACTATE: 1.585
Primary astrocytes [2]
  Score_SNARF: 0.634

## CCn1nccc1-c1csc(S(=O)(=O)Nc2cc(C)ccc2C)c1 [L924-0988]
Primary astrocytes [1]
  Score_LACTATE: 0.6139
Primary astrocytes [2]
  Score_SNARF: 0.6652

## COc1ccc(C2(O)C[N+](c3cccc(C)c3)=C3CCCCN32)cc1 (stereo not drawn) [K404-0796]
Primary astrocytes [1]
  Score_LACTATE: 0
Primary astrocytes [2]
  Score_SNARF: 0.6402

## c1csc(C(Nc2ncnc3sccc23)C2CC2)c1 (stereo not drawn) [T5713637]
Primary astrocytes [1]
  Score_LACTATE: 1.287
Primary astrocytes [2]
  Score_SNARF: 1.184

## CC(=O)N1CCCc2cc(S(=O)(=O)NCc3cccc(C(F)(F)F)c3)ccc21 [T6099519]
Primary astrocytes [1]
  Score_LACTATE: 0
Primary astrocytes [2]
  Score_SNARF: 0.3944

## CCn1nccc1-c1csc(S(=O)(=O)Nc2ccccc2OC)c1 [L924-1088]
Primary astrocytes [1]
  Score_LACTATE: 0.9106
Primary astrocytes [2]
  Score_SNARF: 0.8835

## Fc1ccc(Nc2nc(N3CCOCC3)c3ccccc3n2)cc1 [T0508-5193]
Primary astrocytes [1]
  Score_LACTATE: 0
Primary astrocytes [2]
  Score_SNARF: 0.3052

## COc1ccc(C2(O)C[N+](c3ccccc3C)=C3CCCCCN32)cc1OC (stereo not drawn) [K404-0906]
Primary astrocytes [1]
  Score_LACTATE: 0
Primary astrocytes [2]
  Score_SNARF: 0

## Cc1cccc([N+]2=C3CCCCN3C(O)(c3ccc(F)cc3)C2)c1C (stereo not drawn) [K404-0685]
Primary astrocytes [1]
  Score_LACTATE: 0.6821
Primary astrocytes [2]
  Score_SNARF: 0.6562

## OC1(c2ccccc2)C[N+](c2ccc(Cl)cc2)=C2CCCCN21.[Br-] (stereo not drawn) [F0524-0488]
Primary astrocytes [1]
  Score_LACTATE: 0
Primary astrocytes [2]
  Score_SNARF: 0.3489

## O=S(=O)(NC1CCN(c2ncnc3c2CCC3)C1)c1ccccc1 (stereo not drawn) [T636-1250]
Primary astrocytes [1]
  Score_LACTATE: 0.8982
Primary astrocytes [2]
  Score_SNARF: 0.8587

## COc1ccccc1[N+]1=C2CCCCCN2C(O)(c2cccc([N+](=O)[O-])c2)C1 (stereo not drawn) [K404-0842]
Primary astrocytes [1]
  Score_LACTATE: 0
Primary astrocytes [2]; CDC54K primary screening, 10 uM, 90 min, relative to CCCP 2 uM
  Score: 0.169
Primary astrocytes [2]
  Score_SNARF: 0.2022

## COc1ccc(C)cc1NS(=O)(=O)c1cc(-c2ccnn2C)cs1 [L924-0830]
Primary astrocytes [1]
  Score_LACTATE: 0.9168
Primary astrocytes [2]
  Score_SNARF: 0.7153

## O=C(NCc1cccc(F)c1)NC1CCN(c2ncnc3c2CCC3)C1 (stereo not drawn) [T636-1243]
Primary astrocytes [1]
  Score_LACTATE: 0
Primary astrocytes [2]
  Score_SNARF: 0.4179

## Cn1nccc1C(=O)N1CCC(Nc2ncnc3c2CCC3)C1 (stereo not drawn) [T636-2425]
Primary astrocytes [1]
  Score_LACTATE: 0.3027
Primary astrocytes [2]
  Score_SNARF: 0.2725

## COc1cccc(-c2cc3n(n2)CCCN(Cc2ccncc2)C3)c1 [T202-0973]
Primary astrocytes [1]
  Score_LACTATE: 0
Primary astrocytes [2]
  Score_SNARF: 0.2834

## O=C(Cc1cccc(F)c1)N1CCC(Nc2ncnc3c2CCC3)C1 (stereo not drawn) [T636-2360]
Primary astrocytes [1]
  Score_LACTATE: 0.413
Primary astrocytes [2]
  Score_SNARF: 0

## O=S(=O)(NC1CCCC1)c1cc(-c2noc(C3CCC3)n2)cs1 [L287-1221]
Primary astrocytes [1]
  Score_LACTATE: 0.6602
Primary astrocytes [2]
  Score_SNARF: 0.5995

## Cc1oc2ncnc(N3CCCC(C(=O)NCc4ccccn4)C3)c2c1C (stereo not drawn) [F228-0350]
Primary astrocytes [1]
  Score_LACTATE: 1.023
Primary astrocytes [2]
  Score_SNARF: 1.011

## CCOc1ccc(C2(O)C[N+](c3ccccc3C)=C3CCCCN32)cc1.[Br-] (stereo not drawn) [F0524-0511]
Primary astrocytes [1]
  Score_LACTATE: 0
Primary astrocytes [2]
  Score_SNARF: 0.5555

## O=S(=O)(Nc1ccc(O)c(Cl)c1)c1ccc2ccccc2c1 [T0517-8939]
Primary astrocytes [1]
  Score_LACTATE: 0
Primary astrocytes [2]
  Score_SNARF: 0.6382
